Measurements from US8747900B2, “Dosage form with improved release of cefuroximaxetil” (Gruenenthal GmbH, priority 2005, dated 2014).
Values belong to the compound of their own block, whether it stands above or below them.

Legend:
[1] = cited from earlier work; for Solubility of the active ingredient (dissolved): after 45 minutes, standard method USP 23 page 316
[2] = Solubility / saturation solubility of cefuroximaxetil; type: physicochemical
[3] = Relative stability of binary mixtures of the modifications in water; type: physicochemical
[4] = Storage stability of the crystalline modification at elevated temperature; type: physicochemical
Method: The crystalline modification of cefuroximaxetil according to the invention is stable in storage. […] Even after storage for 2 months at 40° C. and 75% rel. atmospheric humidity, the content of the comparatively easily formed Δ^3-degradation product is still below 1.0 wt. %, which is indicative of excellent stability of the modification according to the invention.

SMILES: CO/N=C(\C(=O)N[C@@H]1C(=O)N2C(C(=O)OC(C)OC(C)=O)=C(COC(N)=O)CS[C@H]12)c1ccco1 (stereo partly drawn) [α-modification, cefuroximaxetil]
Solubility when tested according to USP 23 ([1]; minimum: 60% in 15 minutes, 75% within 45 minutes): does not achieve the specified minimum solubility

SMILES: CO/N=C(\C(=O)N[C@@H]1C(=O)N2C(C(=O)OC(C)OC(C)=O)=C(COC(N)=O)CS[C@H]12)c1ccco1 (stereo partly drawn) [Cefuroximaxetil, 1-acetoxyethyl ester of cefuroxime, i.e. of (6R,7R)-3-carbamoyloxymethyl-7-[(Z)-2-(fur-2-yl)-2-methoxyiminoacetamido]ceph-3-em-4-carboxylic acid]
Saturation solubility ([2]; in the dissolution medium (1000 ml), artificial gastric juice + Tween 80): 600 mg
Solubility ([2]; largely pH-independent): approx. 0.5 mg/ml

SMILES: CO/N=C(\C(=O)N[C@@H]1C(=O)N2C(C(=O)OC(C)OC(C)=O)=C(COC(N)=O)CS[C@H]12)c1ccco1 (stereo partly drawn) [β-modification, cefuroximaxetil]
Solubility of the active ingredient (dissolved) [1]: over 40%

SMILES: CO/N=C(\C(=O)N[C@@H]1C(=O)N2C(C(=O)OC(C)OC(C)=O)=C(COC(N)=O)CS[C@H]12)c1ccco1 (some centres unmarked) [γ-modification, cefuroximaxetil]
Solubility of the active ingredient (dissolved) [1]: 73.0%

Stability relative to the α-, β- and γ-modification [3]: stabler
Change to the composition, chemically (decomposition products) or physically (solubility, X-ray diffractogram) ([4]; after storage at elevated temperature): no significant change
Content of Δ^3-degradation product ([4]; after storage for 2 months at 40° C. and 75% rel. atmospheric humidity): below 1.0 wt. %
SMILES: CO/N=C(\C(=O)N[C@@H]1C(=O)N2C(C(=O)OC(C)OC(C)=O)=C(COC(N)=O)CS[C@H]12)c1ccco1 (some centres unmarked) [δ-modification, cefuroximaxetil]
